Values quoted from earlier work as cited in patent publication US8206772B2, “Structured lipid compositions and methods of formulation thereof” (Kraft Foods Global Brands LLC, priority 2007, dated 2012).

Tests used:
[1] = rats, 5 percent and 10 percent of the diet
[2] = infants fed enriched milk

CC(=O)OCC(COC(C)=O)OC(C)=O [triacetin]
nutritional value / toxicity when fed [1]: nutritious

CCCC(=O)OCC(COC(=O)CCC)OC(=O)CCC [tributyrin]
nutritional value / toxicity when fed [1]: nutritious
fat retained per day [2]: 90.1 to 90.2%

CC(C)CC(=O)OCC(COC(=O)CC(C)C)OC(=O)CC(C)C [triisovalerin]
nutritional value / toxicity when fed [1]: toxic
